Laboratory results from US11318077B2, “Retinaldehyde containing compositions and methods of use” (RODAN & FIELDS, LLC, priority 2017, dated 2022).

What was measured:
[1] = tested on: melanin production in MelanoDerm™ skin substitute; assay: Melanin-modulatory effect in MelanoDerm skin substitutes (color measurement, melanin extraction); format: cell-based; conditions: for Color measurement (whitening units) / Melanin Content / Melanin Content (% control) / Raw *L values: 2 weeks
Protocol: Objective: The objective of this assay was to determine the ability of the test materials (dimethylisosorbide [DMI], retinoic acid [ATRA], 10% w/w NEAR-1 in dimethylisosorbide [NEAR-1], Niacinamide PC [NAD], and Kojic Acid [KA]) and combinations thereof to inhibit melanin production in MelanoDerm™ skin substitute model. The effect of these experimental conditions on the secretion of the proinflammatory cytokine IL-8 was also assessed, as a surrogate for skin irritation potential.
Tissues were equilibrated at 37° C. for 60 min. and undiluted samples (25 μl) of test materials were applied on top of tissues in duplicates. DMI and kojic acid were applied at 2.5% and 2% (w:v) respectively (dissolved in double distilled water). Tissue culture was pursued in the pigmentation-inducing medium EPI-100-NMM-113 for 14 days, with reapplication of test materials and changes of tissue culture media every 2-3 days.
At the end of the experiment, tissue pigmentation was quantified non-invasively with NS800 portable spectrophotometer (3NH Technology Co., Ltd., China). This instrument is a reflectance spectrophotometer that measures reflected light in the visible spectrum (range: 400-700 nm) recording colors in a three-dimensional space known as CIEL*a*b* color space. In this project, the L* value representing the lightness of the color was used for color assessment. For the purpose of this experiment, the range of the L* parameter spanned from 17.8 (black background) to 87.8 (white background).
For melanin quantification, the MelanoDerms were frozen, solubilized in Solvable™ (Perkin Elmer) and melanin was extracted at 95° C. overnight. The colorimetric signals proportional to the concentration of extracted melanin, as well as those proportional to the IL-8 in the tissue-conditioned medium in the ELISA test were quantified with Molecular Devices microplate spectrophotometer MAX190 at 490 nm and 405 nm.

MelanoDerm tissues = assay: Cytotoxicity by microscopic observation of MelanoDerm tissues; format: cell-based; conditions: 2 weeks
Protocol: Tissues were equilibrated at 37° C. for 60 min. and undiluted samples (25 μl) of test materials were applied on top of tissues in duplicates. DMI and kojic acid were applied at 2.5% and 2% (w:v) respectively (dissolved in double distilled water). Tissue culture was pursued in the pigmentation-inducing medium […]-113 for 14 days, with reapplication of test materials and changes of tissue culture media every 2-3 days. Results and Discussion: From the macroscopic documentation of all the MelanoDerm tissues at the end of the experiment, differences of color are clearly visible between the solvent controls and some test materials. Table 34 informs whether cytotoxicity may have played a role in these differences. Table 34 also reports the non-invasive MelanoDerm color measurement performed with portable spectrophotometer. [table]

[2] = tested on: Retinoic Acid Response Element (RARE) transcription factor pathway; assay: Cignal RARE Reporter Assay (firefly luciferase) in HEK293 cells; format: cell-based; conditions: 24 h, vs water
Excerpt: Objective: Retinoic Acid Receptor (RAR) controls gene transcription by binding to Retinoid Acid Response Elements (RAREs) in DNA. This process is modulated by all trans retinoic acid (ATRA)—a compound with well-established anti-aging skin benefits. […] Cignal RARE Reporter Assay® is designed to screen for such compounds using cell cultures. The objective of this project was to test 6 compounds (retinoic acid (ATRA), retinol, vitamin A palmitate, retinal, 10% w/w Near-1 in dimethylisosorbide, and 10% w/w retinoid ester in dimethylisosorbide) for the ability to activate RARE in this Cignal RARE Reporter Assay model.
(§1) Materials & Methods: The experiments were performed using HEK293 cells (Sigma, St. Louis, Mo.; cat. #85120602) seeded at 50,000 per well in a 96 well black-wall tissue culture plate. Cells were transfected by mixing Cignal Reporter Assay firefly/renilla luciferase constructs (cat. #CCS-016L; Qiagen) with Attractene Transfection Reagent (Qiagen) in Opti-MEM supplemented with 1% MEM Non-essential amino acid solution without L-glutamine. After medium change test materials were added and their effect on RARE induction was quantified 24 h later with the Dual-Luciferase Reporter Assay System (cat. #E1960; Promega).

[3] = tested on: Retinoid X receptor (RXR) transcription factor pathway; assay: Cignal RXR Reporter Assay (firefly luciferase) in HEK293 cells; format: cell-based; conditions: for RXR activation (% control): 24 h, vs water
Excerpt: Objective: Retinoid X receptors (RXRs) are one class of nuclear receptors through which retinoids mediate their biological effects. These receptors function as transcription factors by binding as heterodimers to specific sequences in the promoters of target genes. The protein encoded by this gene is a member of the steroid and thyroid hormone receptor superfamily of transcriptional regulators. One of its ligands is all trans retinoic acid (ATRA)—a compound with well-established anti-aging skin benefits. […] Cignal RXR Reporter Assay® is designed to screen for such compounds (retinoic acid (ATRA), retinal, 10% w/w Near-1 in dimethylisosorbide, and 10% w/w retinoid ester in dimethylisosorbide) using cell cultures. The objective of this project was to test four compounds for the ability to activate RXR in this Cignal RXR Reporter Assay model.
as §1, with “The” for “Materials & Methods: The”, “Cignal RXR” for “Cignal”, “#CCS9044L;” for “#CCS-016L;”, “Lglutamine.” for “L-glutamine.”, “RXR” for “RARE”
RXR is a mixture of an inducible retinoid X receptor—responsive firefly luciferase construct and a constitutively expressing Renilla construct, which acts as an internal control for normalizing transfection efficiencies and monitoring cell viability. Signal quantification was obtained with ThermoFisher Scientific Luminoskan Ascent Microplate Luminometer.

IL-8 = IL-8 in MelanoDerm tissue culture-conditioned medium by ELISA (skin irritation surrogate); format: cell-based, Human; conditions: day 14
Protocol: Objective: The objective of this assay was to determine the ability of the test materials (dimethylisosorbide [DMI], retinoic acid [ATRA], 10% w/w NEAR-1 in dimethylisosorbide [NEAR-1], Niacinamide PC [NAD], and Kojic Acid [KA]) and combinations thereof to inhibit melanin production in MelanoDerm™ skin substitute model. The effect of these experimental conditions on the secretion of the proinflammatory cytokine IL-8 was also assessed, as a surrogate for skin irritation potential. Tissue culture-conditioned media were assayed for the presence of IL-8 by indirect ELISA (using Invitrogen IL-8 Human CytoSet, cat. #CHC 1303). For melanin quantification, the MelanoDerms were frozen, solubilized in Solvable™ (Perkin Elmer) and melanin was extracted at 95° C. overnight. The colorimetric signals proportional to the concentration of extracted melanin, as well as those proportional to the IL-8 in the tissue-conditioned medium in the ELISA test were quantified with Molecular Devices microplate spectrophotometer MAX190 at 490 nm and 405 nm.

With `O=c1cc(CO)occ1O` [KA, Kojic Acid] the “Color measurement (whitening units)” value ([1]; 2%) was 9.8 whitening units, the “Melanin Content” value ([1]; 2%) was 38 µg/mL and the “Melanin Content (% control)” value ([1]; 2%) was 38 % control. For the same compound, the “Raw *L values” ([1]; 2%) was 55.3 and the Cytotoxicity (MelanoDerm tissues; 2%) was “Yes”.

With `CC1=C(/C=C/C(C)=C/C=C/C(C)=C/C(=O)OCCNC(=O)c2cccnc2)C(C)(C)CCC1` [NEAR-1, 2-(nicotinamido)-ethyl retinoate] the “RARE-mediated firefly luciferase expression, % control” value ([2]; 1 μM) was 461 % control, the “RARE-mediated firefly luciferase expression, Fold increase” value ([2]; 1 μM) was 4.6 and the “RARE-mediated firefly luciferase expression, % control” value ([2]; 5 μM) was 652 % control. For the same compound, the “RARE-mediated firefly luciferase expression, Fold increase” value ([2]; 5 μM) was 6.5, the “RARE-mediated firefly luciferase expression, % control” value ([2]; 10 μM) was 586 % control and the “RARE-mediated firefly luciferase expression, Fold increase” value ([2]; 10 μM) was 5.8. The “RXR activation (% control)” value ([3]; 1 μM) was 103 % control, the “RXR activation (% control)” value ([3]; 5 μM) was 112 % control and the “RXR activation (% control)” value ([3]; 10 μM) was 127 % control. The “modulatory effect on RXR-mediated gene expression” value ([3]; 10 uM, statistically-significant) was 1.3 fold, the “Color measurement (whitening units)” value ([1]; 833 μM) was 30.0 whitening units and the “Raw *L values” ([1]; 833 μM) was 72.8. The “Color measurement (whitening units)” value ([1]; 2.2 mM) was 27.4 whitening units, the “Melanin Content” value ([1]; 2.2 mM) was 22 µg/mL and the “Melanin Content (% control)” value ([1]; 2.2 mM) was 26 % control. The “Raw *L values” ([1]; 2.2 mM) was 70.2, the “Whitening effect (ranking in the retinoid category)” value ([1]; NEAR-1 at 833 μM, Retinaldehyde 833 μM+NAD 835 μM) was “best whitening effect at non-cytotoxic concentration” and the Cytotoxicity (MelanoDerm tissues; 2.2 mM) was “Yes”. For the same compound, the “IL-8 (col. Units)” value (IL-8; 833 μM) was 208 col. Units and the “IL-8 (col. Units)” value (IL-8; 2.2 mM) was 209 col. Units.
